Test systems include MDA-N; U251 CNS; NCI-H226 lung; UACC-62 melanoma; OVCAR-8 ovarian; 786-0 renal; CAKI-1 renal; SK-MEL-28 melanoma; HCT-116 colon; TK-10 renal; NCI-H460 lung.
Assay in all cases: NCI anticancer screen, dose series, 48 h

The structures appear in SMILES notation. Values joined by “and” are separate entries in the source; they are usually repeats but may differ in a detail not shown here. Equal values may be shown once.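 Step 1: Grow cells in 96-well plates. Step 2: Expose to compound for 48 hours at 5 concentrations. Step 3: Interpolate endpoints linearly; if unreached, use highest concentration. Definition used: TGI = concentration required for complete inhibition of growth.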 A value given as a limit tells only on which side of the number the result lay.

Consider `Oc1cccc(-c2nc3cc(F)ccc3s2)c1`, for which the TGI with MDA-N came out at 61.8 µM; in the assay with U251 CNS it was 76.7 µM; with NCI-H226 lung, 44 µM; in the assay with UACC-62 melanoma it was 35.1 µM; in the assay with OVCAR-8 ovarian it was 51.2 µM; in the assay with 786-0 renal, 39 µM. Moreover, the TGI in the assay with CAKI-1 renal amounted to 35.2 µM; in the assay on SK-MEL-28 melanoma, 50.3 µM; with HCT-116 colon it was 53.8 µM; in the assay on TK-10 renal, 37.4 µM; in the assay with NCI-H460 lung, 55.4 µM.
For the molecule `CC(C)(C)C(=O)CC1=Nc2ccccc2SC1(O)CC(=O)C(C)(C)C` (configuration not stated), the TGI was above 100 µM in the assay on MDA-N; above 100 µM with U251 CNS; 40.3 µM in the assay on NCI-H226 lung; 31.3 µM with UACC-62 melanoma; 57 µM in the assay on OVCAR-8 ovarian; 68.3 µM with 786-0 renal. Besides, the TGI in the assay with CAKI-1 renal is 56.8 µM; in the assay on SK-MEL-28 melanoma, 66 µM; in the assay with HCT-116 colon, 53.7 µM; with TK-10 renal it was above 100 µM; in the assay with NCI-H460 lung, 38.5 µM.
As for `COc1ccc2cc(C(C)C(=O)N3CCOC3=O)ccc2c1` (configuration not stated), the TGI in the assay with MDA-N, in the assay on U251 CNS, with NCI-H226 lung, with UACC-62 melanoma, with OVCAR-8 ovarian and with 786-0 renal was above 100 µM throughout. Besides, the TGI with CAKI-1 renal, in the assay with SK-MEL-28 melanoma, in the assay on HCT-116 colon, in the assay on TK-10 renal and in the assay with NCI-H460 lung was above 100 µM in each case.
Regarding `Nc1ccc(C(=O)N2CCC[C@H]2CO)c(N)c1`, the TGI in the assay with MDA-N, in the assay with U251 CNS, in the assay on NCI-H226 lung, in the assay with UACC-62 melanoma, in the assay with OVCAR-8 ovarian and in the assay on 786-0 renal was above 100 µM throughout. The TGI with CAKI-1 renal, in the assay on SK-MEL-28 melanoma, in the assay on HCT-116 colon, in the assay with TK-10 renal and in the assay with NCI-H460 lung was above 100 µM each time.
As for `CN(C)CCOC1(Cc2ccc(F)cc2)CCC(C(C)(C)C)CC1` (configuration not stated), the TGI in the assay with MDA-N is 17.3 µM and 10.5 µM; in the assay on U251 CNS, 17.3 µM and 19.2 µM; in the assay with NCI-H226 lung, 27.5 µM and 26.8 µM; with UACC-62 melanoma, 15.8 µM and 17 µM; in the assay on OVCAR-8 ovarian, 25.1 µM and 26.9 µM; with 786-0 renal, 15.9 µM and 11.7 µM. The TGI is 19.4 µM and 21 µM with CAKI-1 renal; 14.7 µM and 12 µM with SK-MEL-28 melanoma; 15.6 µM and 15.9 µM with HCT-116 colon; 20.5 µM and 24.7 µM with TK-10 renal; 11.1 µM and 7.09 µM in the assay with NCI-H460 lung.
As for `C=CC[C@]12C=C(OC)[C@@H](O)[C@](OC)(C(c3cc(OC)c4c(c3)OCO4)[C@H]1C)[C@H]2OC(C)=O` (some centres not stated), the TGI in the assay with MDA-N, with U251 CNS, with NCI-H226 lung, with UACC-62 melanoma, in the assay with OVCAR-8 ovarian and in the assay on 786-0 renal was above 100 µM each time. For the same molecule, the TGI in the assay on CAKI-1 renal, in the assay with SK-MEL-28 melanoma, in the assay with HCT-116 colon, in the assay on TK-10 renal and in the assay on NCI-H460 lung was above 100 µM throughout.
`Cn1c2ccccc2c(=NNc2cccc(C(=O)O)c2)c2ccccc21`: the TGI in the assay on MDA-N worked out at 31.3 µM; with U251 CNS, 28.7 µM; with NCI-H226 lung it was 48.6 µM; in the assay on UACC-62 melanoma, 39.8 µM; in the assay with OVCAR-8 ovarian it was 53.3 µM; in the assay with 786-0 renal, 52 µM. Moreover, the TGI with CAKI-1 renal was found to be 73.3 µM; with SK-MEL-28 melanoma it was 35.7 µM; with HCT-116 colon, 28.2 µM; with TK-10 renal it was 59.2 µM; in the assay with NCI-H460 lung, 22 µM.
`CC(C)=CCNc1ncnc2c1ncn2CCC#N`: the TGI with MDA-N, in the assay on U251 CNS, in the assay on NCI-H226 lung, with UACC-62 melanoma, with OVCAR-8 ovarian and in the assay on 786-0 renal was above 100 µM in each case. Also, the TGI with SK-MEL-28 melanoma, with HCT-116 colon, with TK-10 renal and with NCI-H460 lung was above 100 µM throughout.
As to `COC(=O)C1CCCN1C(=O)C(Cc1cn(S(=O)(=O)c2ccc(C)cc2)cn1)NC(=O)OC(C)(C)C` (configuration not stated), the TGI in the assay on MDA-N, with U251 CNS, in the assay on NCI-H226 lung, in the assay with UACC-62 melanoma, in the assay with OVCAR-8 ovarian and with 786-0 renal was above 100 µM in each case. For the same molecule, the TGI in the assay on SK-MEL-28 melanoma, in the assay with HCT-116 colon, with TK-10 renal and in the assay on NCI-H460 lung was above 100 µM each time.
Take `O=C1c2ccccc2C2(c3ccc(Cl)cc3)N[C@H]3CCCC[C@@H]3N12` (some centres not stated): the TGI with MDA-N, in the assay on U251 CNS, with NCI-H226 lung, with UACC-62 melanoma, in the assay with OVCAR-8 ovarian and in the assay with 786-0 renal was above 100 µM throughout. For the same molecule, the TGI with CAKI-1 renal, in the assay with SK-MEL-28 melanoma, in the assay on HCT-116 colon and in the assay with TK-10 renal was above 100 µM throughout.
Take `CCN1CCC(O)(/C=C/c2ccc(C)cc2C)C(C(=O)/C=C/c2ccc(C)cc2C)C1` (configuration not stated): the TGI in the assay with MDA-N was 6.26 µM; in the assay with U251 CNS it was 11.7 µM; in the assay with NCI-H226 lung, 7.79 µM; in the assay with UACC-62 melanoma, 11 µM; with OVCAR-8 ovarian, 5.08 µM; in the assay on 786-0 renal, 3.32 µM. The TGI in the assay with CAKI-1 renal was 9.85 µM; in the assay on SK-MEL-28 melanoma, 10.9 µM; with TK-10 renal it was 3.41 µM; with NCI-H460 lung, 3.32 µM.
Take `Nc1ccc(S(=O)(=O)Nc2nccs2)cc1`: the TGI in the assay with MDA-N, with U251 CNS, in the assay on NCI-H226 lung, in the assay on UACC-62 melanoma, in the assay on OVCAR-8 ovarian and with 786-0 renal was above 100 µM throughout. For the same molecule, the TGI in the assay on SK-MEL-28 melanoma, in the assay with HCT-116 colon, in the assay on TK-10 renal and in the assay on NCI-H460 lung was above 100 µM throughout.
As to `COc1ccc(/C=C2\N=C(SC)NC2=O)cc1`, the TGI with MDA-N, in the assay with U251 CNS, in the assay with NCI-H226 lung, in the assay on UACC-62 melanoma, in the assay with OVCAR-8 ovarian and in the assay with 786-0 renal was above 100 µM each time. In addition, the TGI in the assay with CAKI-1 renal, with SK-MEL-28 melanoma, with HCT-116 colon and with TK-10 renal was above 100 µM each time.

The record behind these values is PubChem BioAssay (NCI).
